Data: patent EP0614464B1, “PEPTIDES AND ANTIBODIES FOR TREATMENT OF RHEUMATOID ARTHRITIS” (PEPTIDE THERAPEUTICS LIMITED, priority 1991, dated 1993)
Ends that are not written are not given here. Peptide text beside a SMILES is read from it.

Legend:
[1] = test system: alternative complement (C3) pathway; assay: Inhibition of C3-activation: preventing IgA-α1AT complex from activating the alternative complement pathway, rabbit erythrocyte haemolysis read-out; type: biochemical, human
Experimental: Various peptides were tested for their ability to prevent the IgA-α1AT complex from activating the alternative complement (C3) pathway.
The method of measuring the capacity to activate the alternative complement pathway by the non-immune IgA-α1AT complex and the subsequent inhibition of this activation by anti-rheumatic peptides is described below.
This method was based on the method described by Riches and Stanworth, Immunology Letters, 1980, 1, 363,366, with modification to miniaturise it thus allowing the assay to be carried out on microtitre plates.
The initial observation by Platts-Mills and Ishizaka (J Immunol. (1974) 113, 348,358) that low dilutions of fresh normal human serum, from which calcium had been removed by chelation with 10mM EGTA to block the classical complement pathway, caused greater than 90% haemolysis of unsensitised rabbit erythrocytes when incubated at 37°C was employed in this assay.
The non-immune complex IgA-α1AT had been shown in the past to be the only known soluble complex to activate the alternative pathway complement and […] of the rabbit erythrocytes. This inhibition required biologically active complex.
The buffers solutions required in this assay were (a) Total lysis buffer (1% Triton100 in ultra pure water), (b) Alternative pathway complement fixation diluent (APCFD) which was:- • 83 volumes CFD, DH 7.2 (1 oxoid tablet: 100ml UPW) • 10 volumes 0.1M EGTA pH 7.2 • 7 volumes MgCl2 pH 7.2
Blood was obtained by venipuncture from a healthy human individual. The blood was allowed to clot for 1 hour at room temperature and then stored overnight at 4°C. The serum was removed and stored at -70°C in lml aliquots. For use, the serum was defrosted and 100µl of 0.1m EGTA pH 7.2 and 70µl O.lm MgCl2 pH 7.2 was added.
Rabbit red blood cells (RBC) were obtained by venipuncture of a healthy rabbit and collected into 0.1M citrate buffer pH 6.2. The RBC were washed 3 times in citrate buffer and the cells were stored in this buffer which was changed every week. It was possible to store cells in this way for 3 weeks. Peptides
The peptides were synthesised as described in Example 1 and made up in UPW to lmM. They were kept frozen at -70°C prior to use.
This was prepared as previously described in Example 2. It was kept frozen in small aliquots prior to use.
Using a round bottomed welled flexible microtitre plate 100µl neat serum (with added EGTA and MgCl2) was added to the first wells in duplicate. This was double diluted out, with APCFD to give a volume of 50µl well. 8 test wells (+ duplicates) were sufficient. 8 wells were prepared as a positive control - (100µl 1% Triton/UPW). 8 wells were prepared as a negative control - (100µl APCFD (Blank)).
50µl of APCFD was added to the test wells and 50µl of 1% rabbit RBC was added to all wells. The plate was then incubated at 37°C for 30 minutes and then centrifuged for 10 minutes at 2000 rpm.
75µl of the supernatant was carefully removed and plated onto a flat bottom welled microtitre plate. The plates were then read at 410nm interference, 690nm reference. The zero or blank value was calculated as the mean value of negative control wells and using the mean of the positive control wells, the percentage lysis for serum dilutions was calculated. In future assays the serum dilution in which lysis was approx. 80% of Rb RBC was used. This was usually in the range 1:4 - 1:6 dilution (ie. lml serum : 4ml APCFD - 6ml APCFD).
A 1:1 dilution of IgA-α1AT complex was made with twice concentrated APCFD. 100µl of this 1:1 dilution of complex was added to the first wells in duplicate. This was double diluted out with APCFD to give 50 µl per well. 50µl of the predetermined dilution of serum (see (i) above) was added to each well. Positive and negative control wells as described in (a) above and wells containing serum alone were used as controls. The plates were incubated at 37°C for 30 minutes and then centrifuged at 2000 rpm for 1 minute. […]

IgA-α1AT complex = assay: HPLC analysis of in vitro dissociation of purified IgA-α1AT complex; type: biochemical, human; conditions: for HPLC minimum: Table 5, minimum concentration giving complex : free IgA ratio at 20% (base-line 14%), >500µM = no complex dissociation at highest concentration tested; for HPLC %: Table 1; for activity: comment in words on Tables 3-5, assay not given, fits the HPLC values
Experimental: The ability of the peptides of the invention to dissociate purified IgA-α1AT complex in vitro was tested as described below. The anti-rheumatic drug D-penicillamine and other synthetic peptides were used as controls. […] The sample was monitored at wavelength 206nm at a flow rate of 1ml/minute with phosphate buffer (0.1M) pH 7.1. […] They represent the ability of the peptides to dissociate the IgA-α1AT complex in vitro. In these experiments, the base-lines level comprises a complex : free IgA ratio of 14% . The minimum concentration of peptide taken to produce a positive dissociation effect is that which results in a complex: free IgA ratio at 20%. In the results tables, all the peptide values are expressed in µMoles.

[2] = test system: mouse macrophage cell line (PU 518); assay: Macrophage inhibition assay: IgA-α1AT complex-stimulated release of lysosomal enzymes; type: cell-based
Experimental: A mouse macrophage cell line (PU 518) was stimulated to release lysosomal enzymes by the addition of purified human IgA-α1AT complex. The degree to which this release was then inhibited by the peptides or other drugs was investigated, with the degree of inhibition being indicative of activity; the concentration of peptide or other test drugs giving 50% inhibition being recorded. Briefly the method was as follows:
25µl of peptide or drug was double diluted in […] + 10% foetal calf serum (FCS) in a sterile tissue culture 96 well plate. 25µl of IgA-α1AT complex in RPMI 1640 +10% FCS at about 0.2mg/ml was then added to all wells. 50µl of cells at a concentration of 2 x 10^6 cells/ml in RPMI 1640 + 10% FCS was then added to each well.
Control wells of cells alone and cells + IgA-α1AT complex were also prepared. The plate was then gently mixed and incubated overnight (16hr) at 37°C in a 4% CO2 atmosphere. Plates were then centrifuged at 1200 rpm for 10 minutes in a bench top centrifuge.
40µl of supernatant was then taken from each well and added to a 96 well polystyrene assay plate, to which was added 40µl of 160mM acetate buffer (pH 4.3) containing 2mM phenolphthalein-β-D-glucuronic acid. To obtain a standard curve, dilutions of phenolphthalein in acetate buffer from 100-5µg/ml were also added to separate wells in the assay plate.
The plates were then incubated at 37°C for 4 hours before 150µl of 0.2M glycine/NaOH buffer (pH 10.6) containing 0.2M NaCl was added to stop the reaction.
Plates were then shaken for 3 minutes before the optical density at 570nm was read on a plate reader, and the amount of β-D-glucuronic acid released from the cells calculated. The concentration of peptide or drug giving 50% inhibition of release was then noted.
The results for the macrophage inhibition assays are expressed as the concentration needed to prevent 50% release of β-glucoromidase.

[3] = test system: alternative complement (C3) pathway; assay: Inhibition of C3-activation: preventing IgA-α1AT complex from activating the alternative complement pathway, rabbit erythrocyte haemolysis read-out; type: biochemical, human; conditions: Table 5; minimum concentration needed to prevent C3 activation
[4] = Table 1, minimum concentration of peptide needed to prevent C3 activation
[5] = Table 3, minimum peptide concentration giving complex : free IgA ratio at 20% (base-line 14%), 90 minutes at 37°C
[6] = Table 3, minimum concentration of peptide needed to prevent C3 activation
[7] = Table 5, minimum concentration needed to prevent C3 activation
[8] = minimum peptide concentration giving complex : free IgA ratio at 20% (base-line 14%), 90 minutes at 37°C

HFCKK-NH2 [Peptide 209, HFCKKnh2]
C' [1, 4]: 3.9 µM

EGHCKK-NH2 [Peptide 155, EGHCKKnh2]
HPLC (IgA-α1AT complex; [5]): 5 µM | IC50 ([2]; Table 3; concentration needed to prevent 50% release of β-glucoromidase; 16hr incubation): 60 µM | C' [1, 6]: <2 µM

IVLVDNKCKCAR [Peptide 89, reference compound]
HPLC minimum (IgA-α1AT complex; 90 minutes at 37°C): 50 µM | C' minimum [1, 7]: 125 µM

HECKK-NH2 [Peptide 204, HECKKnh2]
HPLC % (IgA-α1AT complex; [8]): 10 µM | C' [1, 4]: <1.95 µM

N[C@@H](CS)C(=O)O [Cysteine]
HPLC minimum (IgA-α1AT complex; 90 minutes at 37°C): 250 µM | C' minimum [3]: 16 µM | IC50 ([2]; Table 5, head prints no unit, b70 says all values of the results tables are in µMoles, concentration needed to prevent 50% release of β-glucoromidase): 500 µM

HPCKK-NH2 [Peptide 201, HPCKKnh2]
HPLC % (IgA-α1AT complex; [8]): 10 µM | C' [1, 4]: 3.9 µM

IQHCKK-NH2 [Peptide 134, IQHCKKnh2]
HPLC (IgA-α1AT complex; [5]): 10 µM | C' [1, 6]: 62 µM

NCCCC[C@H](NC(=O)[C@@H](N)CS)C(N)=O [Peptide 115, CKnh2, reference compound] (H-Cys-Lys-NH2)
HPLC minimum (IgA-α1AT complex; 90 minutes at 37°C): 500 µM | activity (IgA-α1AT complex): substantially less active

C[C@@H](N)C(=O)N[C@@H](Cc1c[nH]cn1)C(=O)N[C@@H](CS)C(=O)N[C@@H](CCCCN)C(=O)N[C@@H](CCCCN)C(N)=O [Peptide 205, dAHCKKnh2] (HELM PEPTIDE1{[dA].H.C.K.K.[am]}$$$$V2.0)
HPLC (IgA-α1AT complex; [5]): 10 µM | C' [1, 6]: 1.95 µM

HCKKGE-NH2 [Peptide 151, HCKKGEnh2]
HPLC (IgA-α1AT complex; Table 4, minimum peptide concentration giving complex : free IgA ratio at 20% (base-line 14%), 90 minutes at 37°C): 50 µM | C' ([1]; Table 4, minimum concentration of peptide needed to prevent C3 activation): 16 µM

HDCKK-NH2 [Peptide 198, HDCKKnh2]
HPLC % (IgA-α1AT complex; [8]): 10 µM | C' [1, 4]: 3.9 µM

QHCKK-NH2 [Peptide 133, QHCKKnh2]
HPLC (IgA-α1AT complex; [5]): 10 µM | C' [1, 6]: 31 µM

NCCCC[C@H](NC(=O)[C@H](CCCCN)NC(=O)[C@@H](N)CS)C(N)=O [Peptide 114, CKKnh2] (H-Cys-Lys-Lys-NH2)
HPLC% minimum (IgA-α1AT complex; Table 2, minimum peptide concentration giving complex : free IgA ratio at 20% (base-line 14%), 90 minutes at 37°C): 125 µM | C' minimum ([1]; Table 2, minimum concentration of peptide needed to prevent C3 activation): >1250 µM

NIQHCKK-NH2 [Peptide 135, NIQHCKKnh2]
HPLC (IgA-α1AT complex; [5]): 10 µM | C' [1, 6]: 31 µM

CC(=O)N[C@@H](CS)C(=O)O [N-acetyl Cysteine]
HPLC minimum (IgA-α1AT complex; 90 minutes at 37°C): 500 µM | activity (IgA-α1AT complex): relatively inactive | C' minimum [3]: 4 µM

Substance P [Peptide 36, reference compound]
HPLC minimum (IgA-α1AT complex; 90 minutes at 37°C): >500 µM | IC50 ([2]; Table 5; head prints no unit, b70 says all values of the results tables are in µMoles; concentration needed to prevent 50% release of β-glucoromidase): > 500 µM | C' minimum [1, 7]: >500 µM
